Measured values: PubChem BioAssay AID1963978 (Molecular Pharmacology Branch, DTP, NCI, 2024)

System: 616215-338-R-J1-PDC spheroids with HUVEC/MSC, viability
Experiment: Anticancer human tumor 616215-338-R-J1-PDC patient-derived colon adenocarcinoma cell line growth inhibition [PI3K]
Conditions: for IC50: curve of first compound; for viability, T/C: stronger effect = lower value; active means viability on the fitted dose curve at most 10% of control; inactive means the rest
In short: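 Three cell types, namely tumor cells, endothelial cells and mesenchymal stem cells, formed each spheroid. Combinations with four PI3K inhibitors were screened at clinically achievable concentrations decreasing by half-log, and spheroid viability was recorded.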
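Further: spheroids exposed to agents for seven days before the viability read.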

Cn1cnc2c(F)c(Nc3ccc(Br)cc3Cl)c(C(=O)NOCCO)cc21 + CC(Nc1ncnc2nc[nH]c12)c1cc2cccc(Cl)c2c(=O)n1-c1ccccc1
1.91 µM: IC50 (second compound 0.316 µM)
1.52 µM: IC50 (second compound 0.0316 µM)
active: viability, T/C (second compound 10 µM, first compound 3 µM) 6.44%
0.507 µM: IC50 (second compound 10 µM)
inactive: viability, T/C (second compound 0.0316 µM, first compound 0.00949 µM) 94.3% | viability, T/C (second compound 0.0316 µM, first compound 0.03 µM) 100% | viability, T/C (second compound 0.0316 µM, first compound 0.0949 µM) 89.7% | viability, T/C (second compound 0.0316 µM, first compound 0.3 µM) 75.8% | viability, T/C (second compound 0.0316 µM, first compound 0.949 µM) 59.9% | viability, T/C (second compound 0.0316 µM, first compound 3 µM) 37.5% | viability, T/C (second compound 0.1 µM, first compound 0.00949 µM) 108% | viability, T/C (second compound 0.1 µM, first compound 0.03 µM) 96.5% | viability, T/C (second compound 0.1 µM, first compound 0.0949 µM) 89% | viability, T/C (second compound 0.1 µM, first compound 0.3 µM) 77.6% | viability, T/C (second compound 0.1 µM, first compound 0.949 µM) 51.8% | viability, T/C (second compound 0.1 µM, first compound 3 µM) 43.8% | viability, T/C (second compound 0.316 µM, first compound 0.00949 µM) 95.2% | viability, T/C (second compound 0.316 µM, first compound 0.03 µM) 90.5% | viability, T/C (second compound 0.316 µM, first compound 0.0949 µM) 86.5% | viability, T/C (second compound 0.316 µM, first compound 0.3 µM) 70.2% | viability, T/C (second compound 0.316 µM, first compound 0.949 µM) 59.6% | viability, T/C (second compound 0.316 µM, first compound 3 µM) 44.4% | viability, T/C (second compound 1 µM, first compound 0.00949 µM) 98.6% | viability, T/C (second compound 1 µM, first compound 0.03 µM) 90.8% | viability, T/C (second compound 1 µM, first compound 0.0949 µM) 87.6% | viability, T/C (second compound 1 µM, first compound 0.3 µM) 84.6% | viability, T/C (second compound 1 µM, first compound 0.949 µM) 63% | viability, T/C (second compound 1 µM, first compound 3 µM) 36.9% | viability, T/C (second compound 3.16 µM, first compound 0.00949 µM) 102% | viability, T/C (second compound 3.16 µM, first compound 0.03 µM) 96.3% | viability, T/C (second compound 3.16 µM, first compound 0.0949 µM) 83.3% | viability, T/C (second compound 3.16 µM, first compound 0.3 µM) 76.5% | viability, T/C (second compound 3.16 µM, first compound 0.949 µM) 55% | viability, T/C (second compound 3.16 µM, first compound 3 µM) 32.5% | viability, T/C (second compound 10 µM, first compound 0.00949 µM) 117% | viability, T/C (second compound 10 µM, first compound 0.03 µM) 99.1% | viability, T/C (second compound 10 µM, first compound 0.0949 µM) 93.3% | viability, T/C (second compound 10 µM, first compound 0.3 µM) 52.5% | viability, T/C (second compound 10 µM, first compound 0.949 µM) 41%
1.27 µM: IC50 (second compound 3.16 µM)
1.73 µM: IC50 (second compound 1 µM)
1.56 µM: IC50 (second compound 0.1 µM)

CC(C)n1nc(-c2ccc3oc(N)nc3c2)c2c(N)ncnc21 + Cc1nc(NC(=O)N2CCCC2C(N)=O)sc1-c1ccnc(C(C)(C)C(F)(F)F)c1
0.0532 µM: IC50 (second compound 10 µM)
> 0.1 µM: IC50 (second compound 0.0316 µM) | IC50 (second compound 0.1 µM) | IC50 (second compound 0.316 µM) | IC50 (second compound 1 µM) | IC50 (second compound 3.16 µM)
inactive: viability, T/C (second compound 0.0316 µM, first compound 0.000316 µM) 100% | viability, T/C (second compound 0.0316 µM, first compound 0.001 µM) 88.7% | viability, T/C (second compound 0.0316 µM, first compound 0.00316 µM) 93.9% | viability, T/C (second compound 0.0316 µM, first compound 0.01 µM) 97.2% | viability, T/C (second compound 0.0316 µM, first compound 0.0316 µM) 105% | viability, T/C (second compound 0.0316 µM, first compound 0.1 µM) 93.2% | viability, T/C (second compound 0.1 µM, first compound 0.000316 µM) 98.5% | viability, T/C (second compound 0.1 µM, first compound 0.001 µM) 106% | viability, T/C (second compound 0.1 µM, first compound 0.00316 µM) 96.8% | viability, T/C (second compound 0.1 µM, first compound 0.01 µM) 90.8% | viability, T/C (second compound 0.1 µM, first compound 0.0316 µM) 114% | viability, T/C (second compound 0.1 µM, first compound 0.1 µM) 87.1% | viability, T/C (second compound 0.316 µM, first compound 0.000316 µM) 91.2% | viability, T/C (second compound 0.316 µM, first compound 0.001 µM) 91.2% | viability, T/C (second compound 0.316 µM, first compound 0.00316 µM) 91.4% | viability, T/C (second compound 0.316 µM, first compound 0.01 µM) 96.2% | viability, T/C (second compound 0.316 µM, first compound 0.0316 µM) 111% | viability, T/C (second compound 0.316 µM, first compound 0.1 µM) 82.1% | viability, T/C (second compound 1 µM, first compound 0.000316 µM) 102% | viability, T/C (second compound 1 µM, first compound 0.001 µM) 100% | viability, T/C (second compound 1 µM, first compound 0.00316 µM) 102% | viability, T/C (second compound 1 µM, first compound 0.01 µM) 99.5% | viability, T/C (second compound 1 µM, first compound 0.0316 µM) 106% | viability, T/C (second compound 1 µM, first compound 0.1 µM) 79.1% | viability, T/C (second compound 3.16 µM, first compound 0.000316 µM) 99.7% | viability, T/C (second compound 3.16 µM, first compound 0.001 µM) 102% | viability, T/C (second compound 3.16 µM, first compound 0.00316 µM) 91% | viability, T/C (second compound 3.16 µM, first compound 0.01 µM) 95.4% | viability, T/C (second compound 3.16 µM, first compound 0.0316 µM) 83.8% | viability, T/C (second compound 3.16 µM, first compound 0.1 µM) 56.7% | viability, T/C (second compound 10 µM, first compound 0.000316 µM) 94.4% | viability, T/C (second compound 10 µM, first compound 0.001 µM) 85.9% | viability, T/C (second compound 10 µM, first compound 0.00316 µM) 86.2% | viability, T/C (second compound 10 µM, first compound 0.01 µM) 80.2% | viability, T/C (second compound 10 µM, first compound 0.0316 µM) 56.7% | viability, T/C (second compound 10 µM, first compound 0.1 µM) 41.4%
